Measured values published in patent US7947706B2, “Substituted pyrrolopyridines, compositions containing them, manufacturing process therefor and use thereof” (Sanofi-Aventis Deutschland GmbH, priority 2005, dated 2011).

| melting point [°C] | Structure (SMILES) |
| --- | --- |
| 252 | NC(=O)c1[nH]c2cnccc2c1-c1ccc(NC(=O)Nc2cccc(F)c2)cc1 [Example 48, 3-{4-[3-(3-Fluorophenyl)ureido]phenyl}-1H-pyrrolo[2,3-c]-pyridine-2-carboxamide] |
| 240 | NC(=O)c1[nH]c2cnccc2c1-c1ccc(NC(=O)Nc2cccc(C(F)(F)F)c2F)cc1 [Example 49, 3-{4-[3-(2-Fluoro-3-trifluoromethylphenyl)ureido]phenyl}-1H-pyrrolo[2,3-c]pyridine-2-carboxamide] |
| 261 | NC(=O)c1[nH]c2cnccc2c1-c1ccc(NC(=O)Nc2cc(F)cc(C(F)(F)F)c2)cc1 [Example 50, 3-{4-[3-(3-Fluoro-5-trifluoromethylphenyl)ureido]phenyl}-1H-pyrrolo[2,3-c]pyridine-2-carboxamide] |
| 201 | NC(=O)c1[nH]c2cnccc2c1-c1ccc(NC(=O)Nc2ccc(F)c(C(F)(F)F)c2)cc1 [Example 51, 3-{4-[3-(4-Fluoro-3-trifluoromethylphenyl)ureido]phenyl}-1H-pyrrolo[2,3-c]pyridine-2-carboxamide] |
| 199 | Cc1ccc(NC(=O)Nc2ccc(-c3c(C(N)=O)[nH]c4cnccc34)cc2)cc1C(F)(F)F [Example 52, 3-{4-[3-(4-Methyl-3-trifluoromethylphenyl)ureido]phenyl}-1H-pyrrolo[2,3-c]pyridine-2-carboxamide] |
| 270 | Cc1ccccc1NC(=O)Nc1ccc(-c2c(C(N)=O)[nH]c3cnccc23)cc1 [Example 56, 3-[4-(3-o-Tolylureido)phenyl]-1H-pyrrolo[2,3-c]pyridine-2-carboxamide] |
| 275 | COc1ccc(NC(=O)Nc2ccc(-c3c(C(N)=O)[nH]c4cnccc34)cc2)cc1 [Example 57, 3-{4-[3-(4-Methoxyphenyl)ureido]phenyl}-1H-pyrrolo[2,3-c]pyridine-2-carboxamide] |
| 267 | NC(=O)c1[nH]c2cnccc2c1-c1ccc(NC(=O)Nc2ccc(OC(F)F)c(Cl)c2)cc1 [Example 58, 3-{4-[3-(3-Chloro-4-difluoromethoxyphenyl)ureido]phenyl}-1H-pyrrolo[2,3-c]pyridine-2-carboxamide] |
| 188 | Cc1cc(C)cc(NC(=O)Nc2ccc(-c3c(C(N)=O)[nH]c4cnccc34)cc2)c1 [Example 59, 3-{4-[3-(3,5-Dimethylphenyl)ureido]phenyl}-1H-pyrrolo[2,3-c]pyridine-2-carboxamide] |
| 257 | CCc1cccc(NC(=O)Nc2ccc(-c3c(C(N)=O)[nH]c4cnccc34)cc2)c1 [Example 60, 3-{4-[3-(3-Ethylphenyl)ureido]phenyl}-1H-pyrrolo[2,3-c]-pyridine-2-carboxamide] |
| 254 | CCc1cccc(NC(=O)Nc2ccc(-c3c(C(N)=O)[nH]c4ncccc34)cc2)c1 [Example 61, 3-{4-[3-(3-Ethylphenyl)ureido]phenyl}-1H-pyrrolo[2,3-b]-pyridine-2-carboxamide] |
